The text below walks through data of patent US11559544B2, “Combination of a MAPK/ERK pathway inhibitor and a glycosaminoglycan for the treatment of cancer” (CELL RECEPTOR AG, priority 2017, dated 2023).

In assay [1] the test system is colorectal cancer cell lines COL0205 and HCT116 resistant to PD184352. In words: Growth of CI-1040 (PD184352)-resistant cancerous cells co-incubated daily with platelets (Example 2). Type of assay: cell-based. The settings on record: serum-free, platelets 30 minutes each day; for fate of cell population incubated with MEK inhibitor and PPS or DXS: in the presence of CI-1040 (PD184352). The protocol: (§1) Three populations of cells are cultivated in the presence of the inhibitor under serum-free conditions.
(§2) For a first population of the cells PPS is added to the cell culture dishes, while for a second population, i.e. the control cells, no PPS is added.
(§3) For a third population of the cells DXS is added to the cell culture dishes.
(§4) Each day all cell populations are co-incubated with platelets for 30 minutes, which are subsequently washed away.
The second experiment is performed as described for Example 1 except that cells are cultivated in the presence of the MEK inhibitor CI-1040 (PD184352).
As described in Little et al. 2011 in detail cancerous cells that have developed a resistance against the MEK inhibitor PD184352 are generated by growing colorectal cancer cell lines harboring mutations in BRAF (COL0205) or KRAS (HCT116) in the presence of increasing concentrations of […] without clonal selection until they grow apparently normally in 1 μm, 2 μM or […].
For each of the cancerous cells lines that have developed a resistance against the MEK inhibitor CI-1040 (PD184352) the cultivation steps as in Example 1 are performed, except that the cells are cultivated in the presence of the MEK inhibitor CI-1040 (PD184352).

Assay [2] relates to melanoma cell line A375 resistant to dabrafenib. In words: Growth of dabrafenib-resistant cancerous cells co-incubated daily with platelets (Example 6). In kind it is cell-based, human. As to conditions: serum-free, platelets 30 minutes each day; for fate of cell population incubated with Raf inhibitor and PPS or DXS: in the presence of dabrafenib. The method, then:
as §1, §2, §3, §4
The sixth experiment is performed as described for Example 1 except that cells that have developed a resistance against the Raf inhibitor dabrafenib are used and cultivated in the presence of the Raf inhibitor dabrafenib.
As described in Caparorali et al. 2011 in detail cancerous cells that have developed a resistance against the Raf inhibitor dabrafenib are generated by growing the human melanoma cell line A375 in gradually increasing concentrations of dabrafenib (from 1 nM up to 1.5 μM) over a period of 4 months and subsequently maintaining the dabrafenib-resistance cell lines in CM supplemented with 1.5 μM dabrafenib.
For each of the cancerous cells lines that have developed a resistance against the Raf inhibitor dabrafenib the cultivation steps as in Example 1 are performed, except that the cells are cultivated in the presence of the Raf inhibitor dabrafenib.

Assay [3] has as its system Hepatocellular carcinoma (HCC) Huh7 cells resistant to sorafenib. Briefly: Growth of sorafenib-resistant cancerous cells co-incubated daily with platelets (Example 5). In kind it is cell-based, human. As to conditions: serum-free, platelets 30 minutes each day; for fate of cell population incubated with Raf inhibitor and PPS or DXS: in the presence of sorafenib. The protocol:
as §1, §2, §3, §4
The fifth experiment is performed as described for Example 1 except that cells that have developed a resistance against the Raf inhibitor sorafenib are used and cultivated in the presence of the Raf inhibitor sorafenib.
As described in Chen et al. 2011 in detail cancerous cells that have developed a resistance against the Raf inhibitor sorafenib are generated by growing the human Hepatocellular carcinoma (HCC) Huh7 in a long term exposure to sorafenib.
For each of the cancerous cells lines that have developed a resistance against the Raf inhibitor sorafenib the cultivation steps as in Example 1 are performed, except that the cells are cultivated in the presence of the Raf inhibitor sorafenib.

Assay [4] deals with melanoma cell line SK-MEL-28 (BRAF V600E) resistant to vemurafenib. Briefly: Growth of vemurafenib-resistant cancerous cells co-incubated daily with platelets (Example 4). In kind it is cell-based. The settings on record: in the presence of vemurafenib, serum-free, platelets 30 minutes each day. The protocol:
as §1, §2, §3, §4

Assay [5] relates to NRAS mutant melanoma cell lines DO4 and MM415 resistant to trametinib. Briefly: Growth of trametinib-resistant cancerous cells co-incubated daily with platelets (Example 3). Type of assay: cell-based, Human. The settings on record: in the presence of trametinib, serum-free, platelets 30 minutes each day. The protocol:
as §1, §2, §3, §4
The third experiment is performed as described for Example 1 except that cells that have developed a resistance against the MEK inhibitor trametinib (GSK1120212) are used and cultivated in the presence of the MEK inhibitor trametinib.
As described in Vujic et al. 2014 in detail cancerous cells that have developed a resistance against the MEK inhibitor trametinib are generated by growing Human NRAS mutant melanoma cell lines DO4 and MM415 in the presence of increased concentrations of trametinib (GSK1120212) over a period of approximately 6 months.
For each of the cancerous cell lines that have developed a resistance against the MEK inhibitor trametinib the cultivation steps as in Example 1 are performed, except that the cells are cultivated in the presence of the MEK inhibitor trametinib.

The subject of assay [6] is colorectal cancer cell lines COL0205, HT29, HCT116 and LoVo resistant to Selumetinib. Briefly: Growth of Selumetinib-resistant cancerous cells co-incubated daily with platelets (Example 1). In kind it is cell-based. As to conditions: in the presence of Selumetinib, serum-free, platelets 30 minutes each day. The protocol: The experiment is performed on cancerous cells that have developed a resistance against the MEK inhibitor Selumetinib. As described in Little et al. 2011 in detail cancerous cells that have developed a resistance against the MEK inhibitor Selumetinib are generated by growing colorectal cancer cell lines harboring mutations in BRAF (COL0205 and HT29 lines) or KRAS (HCT116 and LoVo lines) in the presence of increasing concentrations of AZD6244 (Selumetinib) without clonal selection until they grow apparently normally in 1 μm, 2 μM or 4 μM of the drug.
For each of the cancerous cells lines that have developed a resistance against the MEK inhibitor Selumetinib the following steps are performed:
as §1, §2, §3, §4
Control cells in the growth cycle express platelet receptors on their surface. Platelets adhere to the control cells and release growth factors from their alpha granules. The control cells will take up the factors and proceed through the cell cycle, even in the presence of the MEK inhibitor.

For assay [7], the system named is cancerous cells resistant against an RTK inhibitor. In words: Growth of RTK inhibitor-resistant cancerous cells co-incubated daily with platelets (Example 7). The settings on record: in the presence of the RTK inhibitor, serum-free, platelets 30 minutes each day. Type of assay: cell-based. The protocol:
as §1, §2, §3, §4
The seventh experiment is performed as described for Example 1, except that the cancerous cells are resistant against an RTK inhibitor and the three populations of cells are cultivated in the presence of the RTK inhibitor.

The conditions of assay [8]: fraction of Heparin's activity; cited from earlier work.

`O=C(NOCC1CC1)c1ccc(F)c(F)c1Nc1ccc(I)cc1Cl` [CI-1040]: the “growth of control cells with MEK inhibitor alone (no PPS/DXS)” value in assay [1] (CI-1040 (PD184352) alone) is “continue to grow and divide”.

Turning to `CC(C)(C)c1nc(-c2cccc(NS(=O)(=O)c3c(F)cccc3F)c2F)c(-c2ccnc(N)n2)s1` [dabrafenib], the “growth of control cells with Raf inhibitor alone (no PPS/DXS)” value in assay [2] (dabrafenib alone) was “continue to grow and divide”.

Regarding `CNC(=O)c1cc(Oc2ccc(NC(=O)Nc3ccc(Cl)c(C(F)(F)F)c3)cc2)ccn1` [sorafenib], the “growth of control cells with Raf inhibitor alone (no PPS/DXS)” value in assay [3] (sorafenib alone) was “continue to grow and divide”.

For Dextran sulfate [DXS], the “fate of cell population incubated with MEK inhibitor and PPS or DXS” value in assay [1], in assay [5] and in assay [6] was “perish” in each case. For the same compound, the “fate of cell population incubated with Raf inhibitor and PPS or DXS” value in assay [4], in assay [2] and in assay [3] was “perish” in each case. Besides, the “adherence of platelets to the cancerous cells” value in assay [6] is given as “prevents the platelet from adhering to the cancerous cells”. The “fate of cell population incubated with RTK inhibitor and PPS or DXS” value in assay [7] was “perish”.

For Pentosan polysulfate [PPS], the “fate of cell population incubated with MEK inhibitor and PPS or DXS” value in assay [1], in assay [5] and in assay [6] was “perish” each time. In addition, the “fate of cell population incubated with Raf inhibitor and PPS or DXS” value in assay [4], in assay [2] and in assay [3] was “perish” each time. Moreover, in assay [8], the “anticoagulant activity relative to that of Heparin” value is listed as 1/15. The “adherence of platelets to the cancerous cells” value in assay [6] is listed as “prevents the platelet from adhering to the cancerous cells”. The “fate of cell population incubated with RTK inhibitor and PPS or DXS” value in assay [7] is “perish”.
